According to publication PMC11167047 (Cell Death Discovery, 2024):

Columns and labels:
Test in all cases: kinome screen (33PanQinase)
Format in all cases: biochemical
CDK17/p35NCK = molecular target: T1, CDK17/p35NCK (Homo sapiens, UniProt Q00537)
T1 construct: purchased Reaction Biology Europe GmbH (formerly ProQinase)
Description: (§1) The Kinome Screening was performed by Reaction Biology Europe GmbH (http://reactionbiology.com; Freiburg i. Br., Germany).

SGK3 = molecular target: T2, SGK3 (Homo sapiens, UniProt Q96BR1)
T2 construct: purchased Reaction Biology Europe GmbH (formerly ProQinase)
T2 sequence (Q96BR1 1-496): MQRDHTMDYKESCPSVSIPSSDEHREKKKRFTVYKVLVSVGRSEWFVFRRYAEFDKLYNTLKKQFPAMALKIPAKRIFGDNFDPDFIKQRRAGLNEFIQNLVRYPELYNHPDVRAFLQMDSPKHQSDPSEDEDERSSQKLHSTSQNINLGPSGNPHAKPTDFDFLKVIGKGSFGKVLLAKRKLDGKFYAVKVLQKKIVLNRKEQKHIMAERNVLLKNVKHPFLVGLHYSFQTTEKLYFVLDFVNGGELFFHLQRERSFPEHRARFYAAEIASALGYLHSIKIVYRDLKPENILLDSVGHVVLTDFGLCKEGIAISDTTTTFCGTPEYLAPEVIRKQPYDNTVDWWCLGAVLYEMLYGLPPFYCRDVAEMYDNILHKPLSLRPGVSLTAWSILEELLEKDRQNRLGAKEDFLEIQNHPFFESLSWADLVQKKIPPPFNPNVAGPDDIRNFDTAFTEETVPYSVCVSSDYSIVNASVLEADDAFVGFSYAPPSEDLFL
Description: as §1

p38Δ = molecular target: T3, p38Δ (Homo sapiens, UniProt O15264)
T3 construct: purchased Reaction Biology Europe GmbH (formerly ProQinase)
T3 sequence (O15264 1-365): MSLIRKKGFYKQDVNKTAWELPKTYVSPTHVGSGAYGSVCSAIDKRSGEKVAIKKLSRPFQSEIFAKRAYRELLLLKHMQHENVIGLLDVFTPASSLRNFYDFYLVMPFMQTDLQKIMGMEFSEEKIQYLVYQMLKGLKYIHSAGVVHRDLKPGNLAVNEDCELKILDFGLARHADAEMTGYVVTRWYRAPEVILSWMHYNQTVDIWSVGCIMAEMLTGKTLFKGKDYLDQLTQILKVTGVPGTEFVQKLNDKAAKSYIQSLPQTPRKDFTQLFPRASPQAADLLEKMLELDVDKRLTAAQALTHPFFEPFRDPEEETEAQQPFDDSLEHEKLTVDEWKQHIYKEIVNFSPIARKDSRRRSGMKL
Description: as §1

MAPKAPK5 = molecular target: T4, MAPKAPK5 (Homo sapiens, UniProt Q8IW41)
T4 construct: purchased Reaction Biology Europe GmbH (formerly ProQinase)
T4 sequence (Q8IW41 whole entry): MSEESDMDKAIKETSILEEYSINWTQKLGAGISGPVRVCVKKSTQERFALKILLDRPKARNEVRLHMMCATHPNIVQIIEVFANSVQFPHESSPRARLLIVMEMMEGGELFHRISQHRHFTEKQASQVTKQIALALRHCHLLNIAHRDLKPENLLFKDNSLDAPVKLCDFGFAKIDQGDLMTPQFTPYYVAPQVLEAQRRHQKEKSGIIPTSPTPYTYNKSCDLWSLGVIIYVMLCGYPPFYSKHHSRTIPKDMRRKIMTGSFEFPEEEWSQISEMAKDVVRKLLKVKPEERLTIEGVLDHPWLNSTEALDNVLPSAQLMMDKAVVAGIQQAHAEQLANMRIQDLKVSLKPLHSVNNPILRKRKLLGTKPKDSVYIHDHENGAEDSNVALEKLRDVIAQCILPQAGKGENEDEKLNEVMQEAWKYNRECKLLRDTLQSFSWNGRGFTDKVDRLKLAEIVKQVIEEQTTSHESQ
Description: as §1

PYK2 = molecular target: T5, PYK2 (Homo sapiens, UniProt Q14289)
T5 construct: purchased Reaction Biology Europe GmbH (formerly ProQinase)
T5 sequence (Q14289 whole entry): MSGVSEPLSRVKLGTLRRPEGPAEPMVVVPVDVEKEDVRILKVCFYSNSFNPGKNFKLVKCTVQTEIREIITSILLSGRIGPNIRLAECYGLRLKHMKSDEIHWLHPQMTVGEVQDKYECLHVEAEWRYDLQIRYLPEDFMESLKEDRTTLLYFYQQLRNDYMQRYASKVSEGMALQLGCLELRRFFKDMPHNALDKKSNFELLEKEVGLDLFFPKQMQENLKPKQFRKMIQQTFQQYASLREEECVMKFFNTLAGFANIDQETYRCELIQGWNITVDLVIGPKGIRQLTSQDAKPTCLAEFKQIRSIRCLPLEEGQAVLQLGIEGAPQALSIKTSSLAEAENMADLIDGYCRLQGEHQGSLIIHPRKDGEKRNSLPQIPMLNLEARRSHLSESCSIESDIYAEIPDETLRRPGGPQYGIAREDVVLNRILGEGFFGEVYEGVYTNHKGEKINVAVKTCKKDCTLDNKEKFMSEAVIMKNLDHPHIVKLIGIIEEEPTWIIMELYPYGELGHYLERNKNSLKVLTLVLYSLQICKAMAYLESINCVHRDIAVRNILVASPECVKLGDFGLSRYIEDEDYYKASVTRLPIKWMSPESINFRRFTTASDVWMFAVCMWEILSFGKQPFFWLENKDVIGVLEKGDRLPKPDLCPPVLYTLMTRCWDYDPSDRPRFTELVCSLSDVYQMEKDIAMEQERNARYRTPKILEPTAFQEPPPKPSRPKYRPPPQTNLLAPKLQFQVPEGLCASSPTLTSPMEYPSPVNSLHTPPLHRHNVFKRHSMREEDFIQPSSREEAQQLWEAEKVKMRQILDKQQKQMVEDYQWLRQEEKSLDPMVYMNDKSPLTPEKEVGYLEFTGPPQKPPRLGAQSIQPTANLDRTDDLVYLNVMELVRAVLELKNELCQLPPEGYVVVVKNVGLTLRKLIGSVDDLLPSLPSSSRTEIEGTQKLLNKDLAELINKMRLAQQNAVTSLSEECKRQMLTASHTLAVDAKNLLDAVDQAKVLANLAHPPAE
Description: as §1

S6K = molecular target: T6, S6K (Homo sapiens, UniProt P23443)
T6 construct: purchased Reaction Biology Europe GmbH (formerly ProQinase)
T6 sequence (P23443 whole entry): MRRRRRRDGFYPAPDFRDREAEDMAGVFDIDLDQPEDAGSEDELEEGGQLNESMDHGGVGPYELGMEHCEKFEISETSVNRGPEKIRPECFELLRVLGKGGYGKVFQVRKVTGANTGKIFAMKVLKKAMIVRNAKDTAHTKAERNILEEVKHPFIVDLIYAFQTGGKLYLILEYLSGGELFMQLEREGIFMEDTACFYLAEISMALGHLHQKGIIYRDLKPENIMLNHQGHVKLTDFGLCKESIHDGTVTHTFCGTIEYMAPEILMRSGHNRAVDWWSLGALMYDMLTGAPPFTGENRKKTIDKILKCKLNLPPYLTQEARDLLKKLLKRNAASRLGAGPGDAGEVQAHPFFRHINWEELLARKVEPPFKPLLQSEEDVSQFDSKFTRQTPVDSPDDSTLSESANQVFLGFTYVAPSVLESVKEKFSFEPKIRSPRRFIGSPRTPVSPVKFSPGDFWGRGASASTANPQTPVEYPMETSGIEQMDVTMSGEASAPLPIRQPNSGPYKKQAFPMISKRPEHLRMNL
Description: as §1

FYN = molecular target: T7, FYN (Homo sapiens, UniProt P06241)
T7 construct: purchased Reaction Biology Europe GmbH (formerly ProQinase)
T7 sequence (P06241 whole entry): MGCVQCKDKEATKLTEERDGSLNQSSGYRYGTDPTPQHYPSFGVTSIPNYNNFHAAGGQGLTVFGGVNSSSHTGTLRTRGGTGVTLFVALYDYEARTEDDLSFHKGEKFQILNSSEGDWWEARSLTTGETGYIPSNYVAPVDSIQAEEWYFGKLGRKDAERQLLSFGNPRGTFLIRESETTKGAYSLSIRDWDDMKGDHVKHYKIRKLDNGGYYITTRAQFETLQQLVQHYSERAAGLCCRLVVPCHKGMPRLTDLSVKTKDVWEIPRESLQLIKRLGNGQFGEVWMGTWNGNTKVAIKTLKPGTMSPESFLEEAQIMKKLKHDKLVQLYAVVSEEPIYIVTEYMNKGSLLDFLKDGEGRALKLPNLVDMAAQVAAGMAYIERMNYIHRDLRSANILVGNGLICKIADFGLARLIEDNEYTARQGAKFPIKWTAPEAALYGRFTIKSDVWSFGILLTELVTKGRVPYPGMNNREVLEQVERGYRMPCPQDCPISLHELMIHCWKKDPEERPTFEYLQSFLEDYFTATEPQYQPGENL
Description: as §1

PKCβ1 = molecular target: T8, PKCβ1 (Homo sapiens, UniProt P05771)
T8 construct: purchased Reaction Biology Europe GmbH (formerly ProQinase)
T8 sequence (P05771 whole entry): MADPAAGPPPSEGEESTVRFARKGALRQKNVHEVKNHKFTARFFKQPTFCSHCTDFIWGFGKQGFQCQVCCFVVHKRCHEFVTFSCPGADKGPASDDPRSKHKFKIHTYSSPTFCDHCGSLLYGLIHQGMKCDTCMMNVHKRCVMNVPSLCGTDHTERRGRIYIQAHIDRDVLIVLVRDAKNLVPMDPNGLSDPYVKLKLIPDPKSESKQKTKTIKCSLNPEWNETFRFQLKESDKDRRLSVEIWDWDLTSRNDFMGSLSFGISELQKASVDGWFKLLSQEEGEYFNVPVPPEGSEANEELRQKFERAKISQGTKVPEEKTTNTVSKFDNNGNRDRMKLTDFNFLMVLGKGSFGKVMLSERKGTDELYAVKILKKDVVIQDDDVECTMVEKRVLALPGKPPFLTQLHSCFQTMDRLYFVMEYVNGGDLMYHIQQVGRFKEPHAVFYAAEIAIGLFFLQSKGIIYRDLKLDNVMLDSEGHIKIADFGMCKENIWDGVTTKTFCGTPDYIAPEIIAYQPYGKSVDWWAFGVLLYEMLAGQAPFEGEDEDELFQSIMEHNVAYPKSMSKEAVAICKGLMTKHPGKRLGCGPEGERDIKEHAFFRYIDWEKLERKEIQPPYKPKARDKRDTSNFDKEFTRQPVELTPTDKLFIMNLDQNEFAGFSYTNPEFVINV
Description: as §1

FGFR4 = molecular target: T9, FGFR4 (Homo sapiens, UniProt P22455)
T9 construct: purchased Reaction Biology Europe GmbH (formerly ProQinase)
T9 sequence (P22455 22-802): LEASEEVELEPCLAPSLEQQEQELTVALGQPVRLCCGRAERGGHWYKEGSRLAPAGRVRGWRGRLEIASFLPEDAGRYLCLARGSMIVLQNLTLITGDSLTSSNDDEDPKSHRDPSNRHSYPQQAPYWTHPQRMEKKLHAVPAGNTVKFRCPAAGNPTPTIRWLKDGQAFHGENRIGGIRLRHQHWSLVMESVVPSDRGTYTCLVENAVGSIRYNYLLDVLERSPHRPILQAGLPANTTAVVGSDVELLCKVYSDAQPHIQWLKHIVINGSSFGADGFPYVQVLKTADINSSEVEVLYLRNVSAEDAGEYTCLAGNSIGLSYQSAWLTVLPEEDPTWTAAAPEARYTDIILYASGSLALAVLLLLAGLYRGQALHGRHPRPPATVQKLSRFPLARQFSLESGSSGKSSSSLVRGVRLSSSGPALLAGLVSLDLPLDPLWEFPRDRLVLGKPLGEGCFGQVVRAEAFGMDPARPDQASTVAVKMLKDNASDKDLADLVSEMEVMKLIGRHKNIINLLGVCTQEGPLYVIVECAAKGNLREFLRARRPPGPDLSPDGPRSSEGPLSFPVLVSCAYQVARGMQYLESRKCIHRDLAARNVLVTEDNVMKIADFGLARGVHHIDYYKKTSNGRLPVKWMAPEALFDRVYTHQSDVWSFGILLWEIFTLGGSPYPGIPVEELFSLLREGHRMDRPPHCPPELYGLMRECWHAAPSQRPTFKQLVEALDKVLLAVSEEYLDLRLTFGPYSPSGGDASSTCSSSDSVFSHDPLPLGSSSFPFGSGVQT
Description: as §1

AXL = molecular target: T10, AXL (Homo sapiens, UniProt P30530)
T10 construct: purchased Reaction Biology Europe GmbH (formerly ProQinase)
T10 sequence (P30530 26-894): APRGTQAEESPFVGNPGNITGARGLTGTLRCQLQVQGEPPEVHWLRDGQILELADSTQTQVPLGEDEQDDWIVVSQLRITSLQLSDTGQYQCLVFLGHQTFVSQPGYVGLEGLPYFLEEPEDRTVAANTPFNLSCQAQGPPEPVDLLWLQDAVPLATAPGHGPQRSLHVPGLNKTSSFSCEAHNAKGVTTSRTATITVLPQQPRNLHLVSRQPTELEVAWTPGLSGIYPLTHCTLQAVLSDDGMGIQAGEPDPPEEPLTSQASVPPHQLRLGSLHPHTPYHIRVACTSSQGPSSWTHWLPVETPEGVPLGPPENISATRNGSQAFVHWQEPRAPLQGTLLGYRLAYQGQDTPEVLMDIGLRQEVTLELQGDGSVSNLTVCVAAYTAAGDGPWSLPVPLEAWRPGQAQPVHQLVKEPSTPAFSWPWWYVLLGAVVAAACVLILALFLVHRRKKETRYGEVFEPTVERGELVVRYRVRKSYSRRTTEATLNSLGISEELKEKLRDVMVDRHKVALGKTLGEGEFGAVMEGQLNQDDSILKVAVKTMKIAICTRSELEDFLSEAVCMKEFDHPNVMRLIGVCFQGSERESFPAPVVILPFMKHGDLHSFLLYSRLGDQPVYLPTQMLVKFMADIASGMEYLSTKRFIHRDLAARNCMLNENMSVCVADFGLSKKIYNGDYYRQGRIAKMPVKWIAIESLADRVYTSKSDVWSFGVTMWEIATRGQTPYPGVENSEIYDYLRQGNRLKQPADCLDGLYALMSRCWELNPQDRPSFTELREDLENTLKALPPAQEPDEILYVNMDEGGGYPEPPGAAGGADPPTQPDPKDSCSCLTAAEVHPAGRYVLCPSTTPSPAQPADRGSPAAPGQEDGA
Description: as §1

T1 sequence (Q00537 whole entry): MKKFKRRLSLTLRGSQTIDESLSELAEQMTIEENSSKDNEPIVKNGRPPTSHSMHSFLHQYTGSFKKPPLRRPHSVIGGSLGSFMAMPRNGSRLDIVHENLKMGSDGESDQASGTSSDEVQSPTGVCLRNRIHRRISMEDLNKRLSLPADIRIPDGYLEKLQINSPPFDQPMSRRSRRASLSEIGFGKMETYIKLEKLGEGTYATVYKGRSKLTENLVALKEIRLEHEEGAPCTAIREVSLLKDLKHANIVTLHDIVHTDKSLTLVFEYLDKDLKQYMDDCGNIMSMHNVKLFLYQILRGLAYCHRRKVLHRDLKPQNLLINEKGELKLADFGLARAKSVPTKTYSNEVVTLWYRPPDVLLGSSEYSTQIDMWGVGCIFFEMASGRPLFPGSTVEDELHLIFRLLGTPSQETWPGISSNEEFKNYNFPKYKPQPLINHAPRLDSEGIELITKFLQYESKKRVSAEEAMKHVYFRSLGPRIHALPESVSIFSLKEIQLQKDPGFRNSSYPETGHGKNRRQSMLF
T1 sequence (Q15078 whole entry partner): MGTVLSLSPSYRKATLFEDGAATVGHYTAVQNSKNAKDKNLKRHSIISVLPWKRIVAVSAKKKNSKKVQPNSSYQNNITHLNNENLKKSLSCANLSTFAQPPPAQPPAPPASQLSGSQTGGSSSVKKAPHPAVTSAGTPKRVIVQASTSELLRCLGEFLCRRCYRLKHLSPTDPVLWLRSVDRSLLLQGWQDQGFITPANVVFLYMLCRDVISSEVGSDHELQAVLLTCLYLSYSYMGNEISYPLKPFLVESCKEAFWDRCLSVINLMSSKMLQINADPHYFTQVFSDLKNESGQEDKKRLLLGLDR

## COc1ccnc2[nH]cc(-c3cc(N)nc(N)c3)c12 [meriolin 16]
CDK17/p35NCK; 0.03 µM
  residual kinase activity: 46 % of control
CDK17/p35NCK; 0.3 µM
  residual kinase activity: 24 % of control
SGK3; 0.03 µM
  residual kinase activity: 94 % of control
SGK3; 0.3 µM
  residual kinase activity: 84 % of control
p38Δ; 0.03 µM
  residual kinase activity: 79 % of control
p38Δ; 0.3 µM
  residual kinase activity: 24 % of control
MAPKAPK5; 0.3 µM
  residual kinase activity: 85 % of control
PYK2; 0.03 µM
  residual kinase activity: 117 % of control
PYK2; 0.3 µM
  residual kinase activity: 102 % of control
S6K; 0.03 µM
  residual kinase activity: 99 % of control
S6K; 0.3 µM
  residual kinase activity: 84 % of control
FYN; 0.03 µM
  residual kinase activity: 93 % of control
FYN; 0.3 µM
  residual kinase activity: 69 % of control
PKCβ1; 0.03 µM
  residual kinase activity: 103 % of control
PKCβ1; 0.3 µM
  residual kinase activity: 50 % of control
FGFR4; 0.03 µM
  residual kinase activity: 91 % of control
FGFR4; 0.3 µM
  residual kinase activity: 87 % of control
AXL; 0.03 µM
  residual kinase activity: 101 % of control
AXL; 0.3 µM
  residual kinase activity: 75 % of control

## c1ccc(CNc2cc(-c3c[nH]c4ncccc34)ccn2)cc1 [meriolin 36]
CDK17/p35NCK; 0.3 µM
  residual kinase activity: 20 % of control
CDK17/p35NCK; 3 µM
  residual kinase activity: 10 % of control
SGK3; 0.3 µM
  residual kinase activity: 81 % of control
SGK3; 3 µM
  residual kinase activity: 27 % of control
p38Δ; 0.3 µM
  residual kinase activity: 59 % of control
p38Δ; 3 µM
  residual kinase activity: 14 % of control
MAPKAPK5; 3 µM
  residual kinase activity: 69 % of control
PYK2; 0.3 µM
  residual kinase activity: 73 % of control
PYK2; 3 µM
  residual kinase activity: 24 % of control
S6K; 0.3 µM
  residual kinase activity: 82 % of control
S6K; 3 µM
  residual kinase activity: 37 % of control
FYN; 0.3 µM
  residual kinase activity: 22 % of control
FYN; 3 µM
  residual kinase activity: 3 % of control
PKCβ1; 0.3 µM
  residual kinase activity: 53 % of control
PKCβ1; 3 µM
  residual kinase activity: 9 % of control
FGFR4; 0.3 µM
  residual kinase activity: 98 % of control
FGFR4; 3 µM
  residual kinase activity: 58 % of control
AXL; 0.3 µM
  residual kinase activity: 75 % of control
AXL; 3 µM
  residual kinase activity: 28 % of control
